In US20240059689A1, “PURINE DERIVATIVES AS ANTICANCER AGENTS” (Tango Therapeutics, Inc., priority 2021, published 2024) one finds IC50 data, which are given here for 19 compounds.

SMILES strings stand for the structures. Read-outs that look alike come from different tables or passages of the source.

Assay [1] has as its system monoubiquitinated PCNA. Briefly: AlphaLISA assay measuring monoubiquitinated PCNA in MDA-MB-436. Format: cell-based. The following applies: Homo sapiens, MDA-MB-436, monoubiquitinated PCNA, read-out: Alpha Lisa IC50. An excerpt:
Table 1 also indicates IC50 values for exemplary compounds in an AlphaLISA assay measuring monoubiquitinated PCNA in a BRCA1 mutant cell line (MDA-MB-436; column 7).
In general terms: Bead proximity is the source of the signal in Alpha formats.

Assay [2] relates to HCC1954. Briefly: Viability assay, BRCA1 WT cell line HCC1954. Format: cell-based. The following applies: read-out: HCC1954 rel IC50. The source says: (§1) Table 1 also indicates IC50 values in a viability assay for a non-isogenic pair of BRCA1 mutant (column 5-MDA-MB-436) and BRCA1 WT (column 6—HCC1954) cell lines. These values indicate the effect of treatment with compound on cell survival.

Assay [3] concerns MDA-MB-436. Kind of assay: Viability assay, BRCA1 mutant cell line MDA-MB-436. It counts as cell-based. Particulars: Homo sapiens, MDA-MB-436, viability, BRCA1 mutant MDA-MB-436; read-out: MDA-MB-436 rel IC50.
From the text: as §1

Assay [4] addresses USP1-UAF1 (Homo sapiens, UniProt O94782). Kind of assay: Ubiquitin Rhodamine assay of USP1-UAF1 activity. It counts as biochemical. As to the method: Certain compounds of the disclosure were assessed for USP1-UAF1 activity in a Ubiquitin Rhodamine assay as described in Biology Example 1.
The mark [5] stands for this setting: Homo sapiens, HCC1954, viability.

Chain of USP1-UAF1 (O94782 whole entry): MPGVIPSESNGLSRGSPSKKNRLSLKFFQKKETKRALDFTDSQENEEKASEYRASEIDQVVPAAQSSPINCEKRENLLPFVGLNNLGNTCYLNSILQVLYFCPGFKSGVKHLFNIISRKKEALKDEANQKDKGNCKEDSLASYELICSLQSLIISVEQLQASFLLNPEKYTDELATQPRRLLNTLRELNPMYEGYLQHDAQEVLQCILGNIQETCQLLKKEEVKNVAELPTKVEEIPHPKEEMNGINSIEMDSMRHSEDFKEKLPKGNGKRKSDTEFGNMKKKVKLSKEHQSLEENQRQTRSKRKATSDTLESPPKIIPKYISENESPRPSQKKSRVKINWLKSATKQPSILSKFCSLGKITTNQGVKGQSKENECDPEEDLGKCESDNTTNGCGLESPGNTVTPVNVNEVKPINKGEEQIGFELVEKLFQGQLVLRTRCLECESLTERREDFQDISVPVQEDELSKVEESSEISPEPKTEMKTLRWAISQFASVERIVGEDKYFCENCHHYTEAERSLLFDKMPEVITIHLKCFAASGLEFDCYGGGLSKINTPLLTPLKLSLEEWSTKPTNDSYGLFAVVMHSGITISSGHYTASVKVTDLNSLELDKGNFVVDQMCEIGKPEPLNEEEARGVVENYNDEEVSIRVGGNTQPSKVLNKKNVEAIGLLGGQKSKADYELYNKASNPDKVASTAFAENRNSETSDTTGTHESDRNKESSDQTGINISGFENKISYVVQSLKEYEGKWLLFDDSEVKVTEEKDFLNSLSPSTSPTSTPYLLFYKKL
Chain of USP1-UAF1 (Q8TAF3 whole entry partner): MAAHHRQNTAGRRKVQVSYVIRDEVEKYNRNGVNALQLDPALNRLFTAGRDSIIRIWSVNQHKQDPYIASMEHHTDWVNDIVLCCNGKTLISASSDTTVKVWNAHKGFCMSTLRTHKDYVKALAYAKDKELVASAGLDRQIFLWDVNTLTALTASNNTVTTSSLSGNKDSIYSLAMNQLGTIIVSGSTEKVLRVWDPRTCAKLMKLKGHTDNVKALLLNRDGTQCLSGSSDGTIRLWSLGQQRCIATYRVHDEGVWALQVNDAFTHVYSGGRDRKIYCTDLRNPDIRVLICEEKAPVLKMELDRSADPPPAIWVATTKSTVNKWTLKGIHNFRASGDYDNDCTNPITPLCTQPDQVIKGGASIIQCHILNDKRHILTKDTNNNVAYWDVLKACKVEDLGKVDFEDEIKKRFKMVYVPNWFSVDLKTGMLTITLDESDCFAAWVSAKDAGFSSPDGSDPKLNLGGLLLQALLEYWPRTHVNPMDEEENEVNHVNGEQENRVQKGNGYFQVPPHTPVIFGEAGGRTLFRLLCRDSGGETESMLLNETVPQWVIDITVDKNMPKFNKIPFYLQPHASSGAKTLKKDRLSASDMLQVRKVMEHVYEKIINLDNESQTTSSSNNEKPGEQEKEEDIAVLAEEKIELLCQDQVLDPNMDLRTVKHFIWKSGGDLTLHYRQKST

For `Cc1nc(-c2ccccc2-c2ccccc2Cl)nc2c1n(C)c(=N)n2Cc1ccc(-c2nc(C(F)(F)F)cn2C)cc1` (single isomer, unassigned) [Example A-15c, 2-(2′-chloro-[1,1′-biphenyl]-2-yl)-6,7-dimethyl-9-(4-(1-methyl-4-(trifluoromethyl)-1H-imidazol-2-yl)benzyl)-7,9-dihydro-8H-purin-8-imine], the IC50 in assay [1] was under 100 nM; in assay [2] (setting [5]), 250 to 10000 nM; in assay [3], 100 to 250 nM; in assay [4] it was under 30 nM.
Consider `CC(C)c1ccccc1-c1nc(Cl)c2c(n1)n(Cc1ccc(-c3nc(C(F)(F)F)cn3C)cc1)c(=N)n2C` (single isomer, unassigned) [Example A-22a, 6-chloro-2-(2-isopropylphenyl)-7-methyl-9-(4-(1-methyl-4-(trifluoromethyl)-1H-imidazol-2-yl)benzyl)-7,9-dihydro-8H-purin-8-imine], for which the IC50 in assay [1] was 250 to 10000 nM; in assay [2] (setting [5]), 250 to 10000 nM; in assay [3], 250 to 10000 nM; in assay [4], under 30 nM.
With `CC(C)c1ccccc1-c1nc(-c2ccccc2C(C)C)c2c(n1)n(Cc1ccc(-c3nc(C(F)(F)F)cn3C)cc1)c(=N)n2C` (single isomer, unassigned) [Example A-22b, 2,6-bis(2-isopropylphenyl)-7-methyl-9-(4-(1-methyl-4-(trifluoromethyl)-1H-imidazol-2-yl)benzyl)-7,9-dihydro-8H-purin-8-imine], the IC50 in assay [1] is 250 to 10000 nM; in assay [2] (setting [5]), 250 to 10000 nM; in assay [3], 250 to 10000 nM; in assay [4] it was 30 to 100 nM.
In the case of `CC(C)c1ccccc1-c1ncc2c(n1)n(C(C)C1CCN(c3nc(Cl)cn3C)CC1)c(=N)n2C` (single isomer, unassigned) [Example A-26c, 9-(1-(1-(4-chloro-1-methyl-1H-imidazol-2-yl)piperidin-4-yl)ethyl)-2-(2-isopropylphenyl)-7-methyl-7,9-dihydro-8H-purin-8-imine], the IC50 in assay [1] lay within 250 to 10000 nM; in assay [2] (viability), 250 to 10000 nM; in assay [3], 250 to 10000 nM; in assay [4], 100 to 10000 nM.
Turning to `Cn1cc(C(F)(F)F)nc1-c1ccc(Cn2c(=N)n(C)c3cnc(-c4ccccc4[C@H](O)C(F)(F)F)nc32)cc1` (single isomer, unassigned) [Example T-129, 2,2,2-trifluoro-[2-[8-imino-7-methyl-9-[[4-[I-methyl-4-(trifluoromethyl)imidazol-2-yl]phenyl]methyl]purin-2-yl]phenyl]ethanol], the IC50 in assay [1] was 100 to 250 nM; in assay [2] (setting [5]) it was at least 10000 nM; in assay [3], 100 to 250 nM; in assay [4] it was 30 to 100 nM.
On to `Cn1cc(C(F)(F)F)nc1-c1ccc(Cn2c(=N)n(C)c3cnc(-c4ccccc4[C@@H](O)C(F)(F)F)nc32)cc1` (single isomer, unassigned) [Example T-148, 2,2,2-trifluoro-[2-[8-imino-7-methyl-9-[[4-[I-methyl-4-(trifluoromethyl)imidazol-2-yl]phenyl]methyl]purin-2-yl]phenyl]ethanol], for which the IC50 in assay [1] was 100 to 250 nM; in assay [2] (setting [5]) it was at least 10000 nM; in assay [3], 250 to 10000 nM; in assay [4], 100 to 10000 nM.
As to `CC(C)c1ccccc1-c1ncc2c(n1)n(Cc1ccc(-c3ncc(C(F)(F)F)n3C)cc1)c(=N)n2C` [Example A-1, 2-(2-isopropylphenyl)-7-methyl-9-(4-(J-methyl-5-(trifluoromethyl)-1H-imidazol-2-yl)benzyl)-7H-purin-8(9H)-imine], the concentration for half-maximal inhibition (IC50) fell in the range of 250 to 10000 nM in assay [1], 250 to 10000 nM in assay [2] (setting [5]), 250 to 10000 nM in assay [3] and 100 to 10000 nM in assay [4].
`CC(C)c1ccccc1-c1ncc2c(n1)n(CC1CCN(c3nc(Cl)cn3C)CC1)c(=N)n2C` [Example A-3, 9-((1-(4-chloro-1-methyl-1H-imidazol-2-yl)piperidin-4-yl)methyl)-2-(2-isopropylphenyl)-7-methyl-7H-purin-8(9H)-imine]: the 50% inhibitory concentration (IC50) is 250 to 10000 nM in assay [1], at least 10000 nM in assay [2] (setting [5]), 250 to 10000 nM in assay [3] and 100 to 10000 nM in assay [4].
Turning to `CC(C)c1ccccc1-c1ncc2c(n1)n(Cc1ccc(-c3nc(C(F)(F)F)c[nH]3)cc1)c(=N)n2C` [Example A-5, 2-(2-isopropylphenyl)-7-methyl-9-(4-(4-(trifluoromethyl)-1H-imidazol-2-yl)benzyl)-7,9-dihydro-8H-purin-8-imine], the IC50 in assay [1] was in the range of 250 to 10000 nM; in assay [2] (setting [5]), 250 to 10000 nM; in assay [3], 250 to 10000 nM; in assay [4], 30 to 100 nM.
Turning to `CC(C)c1ccccc1-c1ncc2c(n1)n(Cc1ccc(-c3nc(Cl)cn3C)cc1)c(=N)n2C` [Example A-6, 9-(4-(4-chloro-1-methyl-1H-imidazol-2-yl)benzyl)-2-(2-isopropylphenyl)-7-methyl-7,9-dihydro-8H-purin-8-imine], the 50% inhibitory concentration (IC50) in assay [1] was under 100 nM; in assay [2] (setting [5]), at least 10000 nM; in assay [3] it was under 100 nM; in assay [4], under 30 nM.
With `Cc1nc(-c2ccccc2C(C)C)nc2c1n(C)c(=N)n2Cc1ccc(-c2nc(C(F)(F)F)cn2C)cc1` [Example A-8, 2-(2-isopropylphenyl)-6,7-dimethyl-9-(4-(1-methyl-4-(trifluoromethyl)-1H-imidazol-2-yl)benzyl)-7,9-dihydro-8H-purin-8-imine], the concentration for half-maximal inhibition (IC50) is under 100 nM in assay [1], 250 to 10000 nM in assay [2] (setting [5]), under 100 nM in assay [3] and under 30 nM in assay [4].
As for `Cn1cc(Cl)nc1-c1ccc(Cn2c(=N)n(C)c3cnc(-c4ccccc4Cl)nc32)cc1` [Example A-11, 9-(4-(4-chloro-1-methyl-1H-imidazol-2-yl)benzyl)-2-(2-chlorophenyl)-7-methyl-7,9-dihydro-8H-purin-8-imine], the IC50 in assay [1] is 250 to 10000 nM; in assay [2] (setting [5]), at least 10000 nM; in assay [3] it was 250 to 10000 nM; in assay [4], 100 to 10000 nM.
Regarding `C=C(C)c1ccccc1-c1ncc2c(n1)n(Cc1ccc(-c3nc(Cl)cn3C)cc1)c(=N)n2C` [Example A-12, 9-(4-(4-chloro-1-methyl-1H-imidazol-2-yl)benzyl)-7-methyl-2-(2-(prop-1-en-2-yl)phenyl)-7,9-dihydro-8H-purin-8-imine], the half-maximal inhibitory concentration (IC50) was under 100 nM in assay [1], at least 10000 nM in assay [2] (setting [5]), under 100 nM in assay [3] and under 30 nM in assay [4].
Turning to `CC(C)c1ccccc1-c1nc(C#N)c2c(n1)n(Cc1ccc(-c3nc(C(F)(F)F)cn3C)cc1)c(=N)n2C` [Example A-13, 8-imino-2-(2-isopropylphenyl)-7-methyl-9-(4-(1-methyl-4-(trifluoromethyl)-1H-imidazol-2-yl)benzyl)-8,9-dihydro-7H-purine-6-carbonitrile], the half-maximal inhibitory concentration (IC50) in assay [1] fell in the range of 250 to 10000 nM; in assay [2] (setting [5]), 250 to 10000 nM; in assay [3], 250 to 10000 nM; in assay [4], 100 to 10000 nM.
For `CCn1c(=N)n(Cc2ccc(-c3nc(C(F)(F)F)cn3C)cc2)c2nc(-c3ccccc3C(C)C)ncc21` [Example A-14, 7-ethyl-2-(2-isopropylphenyl)-9-(4-(1-methyl-4-(trifluoromethyl)-1H-imidazol-2-yl)benzyl)-7,9-dihydro-8H-purin-8-imine], the IC50 is under 100 nM in assay [1], 250 to 10000 nM in assay [2] (setting [5]), under 100 nM in assay [3] and under 30 nM in assay [4].
With `C=C(C)c1ccccc1-c1nc(C)c2c(n1)n(Cc1ccc(-c3nc(C(F)(F)F)cn3C)cc1)c(=N)n2C` [Example A-16, 6,7-dimethyl-9-(4-(1-methyl-4-(trifluoromethyl)-1H-imidazol-2-yl)benzyl)-2-(2-(prop-1-en-2-yl)phenyl)-7,9-dihydro-8H-purin-8-imine], the IC50 in assay [1] is under 100 nM; in assay [2] (setting [5]) it was 250 to 10000 nM; in assay [3], under 100 nM; in assay [4], under 30 nM.
Turning to `CC(C)c1ccccc1-c1nc(N(C)C)c2c(n1)n(Cc1ccc(-c3nc(C(F)(F)F)cn3C)cc1)c(=N)n2C` [Example A-17, 8-imino-2-(2-isopropylphenyl)-N,N,7-trimethyl-9-(4-(1-methyl-4-(trifluoromethyl)-1H-imidazol-2-yl)benzyl)-8,9-dihydro-7H-purin-6-amine], the 50% inhibitory concentration (IC50) is 250 to 10000 nM in assay [1], 250 to 10000 nM in assay [2] (setting [5]), 250 to 10000 nM in assay [3] and 100 to 10000 nM in assay [4].
As to `CNc1nc(-c2ccccc2C(C)C)nc2c1n(C)c(=N)n2Cc1ccc(-c2nc(C(F)(F)F)cn2C)cc1` [Example A-18, 8-imino-2-(2-isopropylphenyl)-N, 7-dimethyl-9-(4-(1-methyl-4-(trifluoromethyl)-1H-imidazol-2-yl)benzyl)-8,9-dihydro-7H-purin-6-amine], the IC50 was at least 10000 nM in assay [1], 250 to 10000 nM in assay [2] (setting [5]), 250 to 10000 nM in assay [3] and 100 to 10000 nM in assay [4].
On to `Cc1cc(Cl)nn1-c1ccc(Cn2c(=N)n(C)c3cnc(-c4ccccc4C(C)C)nc32)cc1` [Example A-21, 9-(4-(3-chloro-5-methyl-1H-pyrazol-1-yl)benzyl)-2-(2-isopropylphenyl)-7-methyl-7,9-dihydro-8H-purin-8-imine], for which the concentration for half-maximal inhibition (IC50) in assay [1] is under 100 nM; in assay [2] (setting [5]), 250 to 10000 nM; in assay [3], under 100 nM; in assay [4] it was under 30 nM.

A word on the IC50: it is the point on the concentration scale where inhibition reaches its midpoint.
